Laboratory results reported in US11903917B2, “MEK-inhibitor for the treatment of viral and bacterial infections” (priority 2017, dated 2024).
Where “and” joins values, the source holds several entries; their conditions need not be identical. Equal entries are not always repeated.

Key:
S. aureus 6850 [1] = test: Over-night treated culture, bacterial titers (CFU/ml) and OD600; assay type: cell-based, Staphylococcus aureus
S. aureus 6850 [2] = test: Time-of-addition assay, bacterial titers at 0, 3 and 6 h, then medium exchange; assay type: cell-based, Staphylococcus aureus
S. aureus = test: Resistance development during 17 days of constant treatment; assay type: cell-based, Staphylococcus aureus; conditions: 24 h cycles repeated for 17 days
[3] = tested on: A549 cells infected with A/Puerto Rico/8/34 (H1N1) and/or S. aureus 6850; assay type: cell-based
[4] = tested on: A549 cells infected with influenza virus (IV) and S. aureus 6850; test: Example 8: cytopathic effect in A549 cells infected with influenza virus and S. aureus 6850, light microscopy; assay type: cell-based, human; conditions: 10 μM, until 24 h p.i., super-infection
Protocol: Influenza virus (IV) infection results in enhanced expression of antiviral cytokines, most importantly type I IFNs that activate critical downstream antiviral responses and may also potentiate subsequent bacterial infections. […] Specifically, A549 cells were pre-treated for 1 h with 10 μM of the specific MEK-inhibitor PD-0184264 or DMSO as solvent control. Afterwards, cells were rinsed with PBS and infected with influenza virus (IV) (MOI as indicated) for 30 min at 37° C., 5% CO2. Subsequently, cells were washed with PBS and infected with S. aureus 6850 (MOI as indicated) in the presence or absence of the inhibitor for 3 h. To avoid bacterial over-growth, an antibiotic wash step with lysostaphin (2 μg/mL) was performed for 20 min at 37° C. to remove not-internalized bacteria. Then, cells were washed once and were further incubated until 24 h p.i. in the presence of the inhibitor or solvent. At the end of the incubation period, the cell monolayer was analyzed via light microscopy.

S. aureus 6850 [5] = assay type: cell-based, Staphylococcus aureus
[6] = tested on: influenza A virus strain RB1 [A/Regensburg/D6/09 (H1N1 pdm09)]; test: Progeny virus inhibition assay in A549 cells; assay type: cell-based
H1N1 pdm09 = test: Example 11: lung virus titration assay in infected mice; assay type: in vivo, C57BL/6 mice; conditions: for virus titer in the lung, control set to 100%: 24 h after infection
Protocol: (A) After H1N1 pdm09 infection female C57BL/6 mice were treated with either 2.8, 8.4 or 25 mg/kg PD-0184264 (left side) or with 25, 75 or 150 mg/Kg […] ([…]) the oral route. 24 hrs after infection the animals were killed and lung was taken to prepare a 10% suspension. Virus titer was determined using the standard method. Virus titer of mice treated with the two MEK-inhibitors were compared to virus titer of mice treated with solvent (Control) alone. Virus tier in the lungs of control mice was set to 100% (black bar). Graphpad Prism 7 software was used to illustrate both figures.
For oral application of 25 mg/kg, 2.5 mg of PD-0184264 were dissolved in 50 μl DMSO (Sigma-Aldrich, Germany) and further diluted with 0.15 ml Cremophor EL (Merck-Millipore, Germany) and 0.8 ml PBS (Gibco, Germany). For application of 8.4 mg/kg and 2.8 mg/kg, 0.84 mg or 0.28 mg PD-0184264 were dissolved with 50 μl DMSO (Sigma-Aldrich, Germany) and further diluted with 0.15 ml Cremophor EL/0.8 ml PBS.
Eight week old female C57Bl/6 mice (Charles River Laboratories, Germany) with a body weight of 21.0-24.0 g at administration were used for antiviral studies. The animals were normally fed. Drinking water was available ad libitum.
Drugs were administrated using a single dosing on test day 1 by oral gavage. The application speed was 15 s per dose with an administration volume of 200 μl.
Mice were sacrificed 24 h post infection and lungs were weighed, transferred into a Lysing Matrix D tube (MP Bio) and BSS was applied in an amount of the 10-fold volume of the lung. Organs were shredded using the FastPrep FP 120 (Savant). To remove the cell debris the homogenates were centrifuged for 15 min at 2000 rpm and the supernatant collected. The determination of virus titer in homogenates was performed using the AVICEL® plaque assay as described previously (Haasbach et al. 2011, Mastrosovich et al. 2006).

[7] = Pharmacokinetics, drug in plasma after i.v. or per os application; assay type: in vivo, NMRI mice
Protocol: Blood was collected at 15 min, 30 min, 1 h, 2 h, 4 h, 6 h, 8 h and 24 h (test day 2) after administration and plasma was analysed for the presence of the drug. […] Blood was collected at 15 min, 30 min, 1 h, 2 h, 4 h, 6 h, 8 h and 24 h (test day 2) after administration and plasma was analysed for the presence of the drug. Each data point represents the mean value of three plasma samples. Graphpad Prism 7 software was used to illustrate both figures.
34.88 mg PD-0184264 were dissolved in 0.075 ml DMSO and further diluted with 0.225 ml Cremophor EL/2.7 ml PBS. […] 81.0 mg PD-0184264 were dissolved in 0.2 ml DMSO/0.6 ml Cremophor EL/3.2 ml PBS.
Eight week old male NMRI mice (Charles River Laboratories, Germany) with a body weight of 23.9-36.5 g at administration were used for pharmacokinetic studies. The animals were normally fed. Drinking water was available ad libitum.
Experiments were performed at LPT GmbH (Hamburg, Germany). Sufficient whole blood—taken under isoflurane anaesthesia—was collected to obtain at least 2×100 μl Li-Heparin plasma of 3 animals per group and time-point at the following times: 0 (predose), 15 min, 30 min, 1 h, 2 h, 4 h, 6 h, 8 h and 24 h (test day 2) after administration. The whole blood samples were instantly cooled using an Iso-Therm-Rack system (Eppendorf AG, Germany) until centrifugation within 0.5 hours after withdrawal. Immediately after centrifugation, the samples were stored at −20° C. until further analysis. Plasma analysis was performed using standard procedures at Prolytic GmbH (Frankfurt, Germany).
Drugs were either administrated using a single dosing on test day 1 by oral gavage or by Intravenous bolus injection into a tail vein. The Injection speed was 15 s/dose with an administration volume of 200 μl.

[8] = tested on: MRSA strain S. aureus (USA300); test: Cell-free culture bacterial growth (OD600)
Protocol: Bacterial growth was monitored for 360 minutes.
MRSA bacteria were incubated with different concentrations of the MEK inhibitor ranging from 0-100 μM and bacterial growth was monitored six hours after cultivation.

SMILES: O=C(O)c1ccc(F)c(F)c1Nc1ccc(I)cc1Cl [PD-0184264, 2-(2-chloro-4-iodophenylamino)-N-3,4-difluoro benzoic acid]
- reduction of bacterial growth (FIG. 4) (S. aureus 6850 [1]; 10 μM, over night, S. aureus 6850): significant reduction of growth
- reduction of bacterial titers (S. aureus 6850 [1]; 20 μM, over night, S. aureus 6850, CFU/ml): 1.5-2 orders of a magnitude
- effect on bacterial titers (CFU/ml) (S. aureus 6850 [1]; over night treatment, S. aureus 6850, vs solvent): very strong reduction in bacterial load
- inhibition of bacterial growth, compared with U0126 and gentamicin (0.5 or 2 μg/ml) (S. aureus 6850 [2]; S. aureus 6850, 3 h and 6 h post inoculation): strongest inhibition of bacterial growth
- mode of antibacterial action after medium exchange (S. aureus 6850 [2]; cultures further incubated without substances reached turbidity of solvent culture): bacteriostatic rather than a bactericidal action
- resistance development in S. aureus (S. aureus): did not induce resistance
- concentration already showing reduction of the cytopathic effect ([3]; bacterial and viral co-infection, FIG. 5): 15 µM
- cytopathic effect (CPE), cell monolayer disruption ([3]; increasing concentrations, 24 h, IAV (H1N1) MOI 0.001 and S. aureus 6850 MOI 0.1): reversed in a concentration dependent manner
- cytopathic effect (CPE) [4]: completely abolished
- intracellular bacterial titers (S. aureus 6850 [5]): reduced intracellular bacterial titers
- reduction of progeny virus [6]: almost no reduction
- reduction of virus titer [6]: 98.87±0.03% and 91.50±2.08% and 58.97±4.45%
- fold higher EC50 value compared to the EC50 value of CI-1040 ([6]; CI-1040 value from Haasbach et al. 2017): 31 fold
- EC50 ([6]; Influenza A virus, H1N1, RB1 on A549 cells, FIG. 17B): 804 nM
- S.I. (selectivity index) ([6]; against RB1 on A549 cells): 1960
- fold higher concentration needed to achieve similar reduction of progeny influenza virus as 10 μM CI-1040 ([6]; in vitro, A549): ~10 fold
- virus titer in the lung, control set to 100% (H1N1 pdm09; 2.8 mg/kg oral): approx. 70%
- virus titer in the lung, control set to 100% (H1N1 pdm09; 8.4 mg/kg oral): approx. 20%
- virus titer in the lung, control set to 100% (H1N1 pdm09; 25 mg/kg oral): approx. 10%
- reduction of the virus titer in the lung (H1N1 pdm09; 25 mg/kg, FIG. 18): at least 90%
- fold lower concentration needed to achieve a similar effect as 150 mg/kg CI-1040 (H1N1 pdm09; oral): 6 fold
- drug in plasma at eight hours ([7]; 150 mg/kg per os application): still a high concentration
- AUC ([7]; mouse, plasma, iv, male NMRI mice, route of this value not stated (75 mg/kg i.v. / 150 mg/kg per os)): 1950 µg·h/mL
- bacterial growth (OD600) ([8]; 50 μM, monitored for 360 minutes, vs solvent DMSO): almost complete absent
- inhibition of bacterial growth (FIG. 3) ([8]; starting at 50 μM, 6 hrs): almost complete inhibition of growth
